Tests used:
[1] = system: Balb/c mice; assay: Water-immersion and sleep-disturbance test (weight-loaded forced swimming test, swimming time); type: in vivo
Source text: The first test is measurement of a swimming time in a water-immersion and sleep-disturbance test. This is described in detail below in Example 1. Mice raised in an environment, such as a water-immersed environment, where they were not allowed to take enough sleep or to take a comfortable posture so that they could take neither physical nor mental rest were weighted and forced to swim, and a length of time that passed until noses of the mice sank under the water for a period of 10 seconds or longer was measured (weight-loaded forced swimming test) to determine their fatigue level.
That is to say, since this animal model is a physical and mental fatigue model as well as an organ fatigue model described below, anti-fatigue action against physical and/or mental fatigue would be confirmed if the swimming time becomes longer as a result of administration of the test substance. Such anti-fatigue action is considered to be involved in reduction in fatigue stress, maintenance of physical energy under fatigue conditions (enhancement of body strength), improvement in endurance, and the like.
Effect of andrographolide on fatigue from water immersion and sleep disturbance was examined using a partially modified method of Tanaka et al. (Neuroscience Let. 352, 159-162, 2003). […] Four out of the five groups were reared as water-immersed groups; the groups were kept in cages in such a manner that each of the cages was filled with tap water at 23° C. with a water depth of 7 mm, instead of a floor covering, so that the mice were immersed in water and deprived of sleep. The mice were immersed in water for two days, andrographolide (Aldrich corp., purity 98%) was forcibly administered orally to the mice with doses of 0.5, 2, 8 mg per kilogram of body weight once daily during the two days (water-immersed and andrographolide-administered group). As a control group, one of the groups was immersed in water for two days, and distilled water was forcibly given orally to the group once daily during the two days (water-immersed control group). The remaining one of the five groups was reared as a normally-reared group; this group was kept in a cage with a normal floor covering, and distilled water was forcibly given orally to the group once daily during the two-day rearing (normally-reared control group). After the two days, each of the mice was provided with a weight corresponding to 8% of its body weight, which weight was attached to its tale, and then the mice were forced to swim in a water tank having a diameter of 18 cm and filled with water having a depth of 30 cm. A length of time that passed until the mice sank under water for a period of 10 seconds or longer (swimming time) was measured (weight-loaded forced swimming test).
The swimming time of the mice of the water-immersed group was shorter than that of the mice of the normally-reared group because of fatigue from the water immersion and sleep disturbance. The effect of andrographolide on the fatigue from the water immersion and sleep disturbance was examined by determining recovery of a reduction in the swimming time of the mice of the water-immersed group after the administration of andrographolide.
In accordance with the procedure described in Example 1, effect on water-immersion and sleep-disturbance fatigue was examined in a case in which andrographolide was administered alone to mice, a case in which alpha-lipoic acid was administered alone to mice, and a case in which a combination of andrographolide and alpha-lipoic acid was administered to mice. Eight-week-old male Balb/c mice were used as a test animal. […] Four out of the five groups served as water-immersed groups, and each of the groups was kept in a cage filled with tap water at 23° C. with a water depth of 7 mm, instead of a floor covering, so that the mice were immersed in water and deprived of sleep. […]

[2] = system: Sprague Dawley rats; assay: Forced exercise test (amount of spontaneous exercise after treadmill exercise stress); type: in vivo; conditions: 2 mg per kilogram of body weight orally after 3 hours treadmill exercise stress; FIG. 3
Procedure: The third test is measurement of an amount of spontaneous exercise in a forced exercise test. This is described in detail below in Example 3. Rats were forced to exercise on a treadmill, and thereafter the test substance was administered. Then, the amount of spontaneous exercise of the animal was measured. Since this animal model is an exercise fatigue (physical fatigue) model, anti-fatigue action against physical fatigue would be confirmed if increase in the amount of spontaneous exercise is observed after the administration of the test substance. Such anti-fatigue action is considered to be involved in improving endurance and exercise performance.
Six-week-old male Sprague Dawley rats were used as a test animal. On the day before the test was started, the rats were divided into five groups each having eight rats, and all of the rats were deprived of food since the morning of the test day. […] Thereafter, the rats were moved into a spontaneous exercise measuring device having an infrared sensor (Supermex, Muromachi Kikai Co., Ltd.), and an amount of spontaneous exercise was measured during a period of 0-2 hours (exploration) and a period of 2-14 hours (dark period). […]

[3] = Stability of andrographolide; type: physicochemical
Source text: Thus andrographolide can be contained in the composition of the present invention without being processed or made into various forms according to the purpose by use of methods that are publicly known among people skilled in the art; for instance, it can be made into food, drink, seasoning, alcoholic beverages, functional food, pharmaceuticals, or the like. Especially the composition of the present invention can be made into pharmaceuticals for oral administration or food (e.g., functional food, dietary supplement, food with nutrient function, food for specified use, food for specified health use, nutritional supplement, health food, food for diet therapy, general health food, supplements).

C=C1CC[C@@H]2[C@](C)(CO)[C@H](O)CC[C@@]2(C)[C@@H]1C/C=C1/C(=O)OC[C@H]1O [andrographolide]
reduction in the swimming time ([1]; 0.25 mg per kilogram of body weight orally once daily during two days of water immersion, FIG. 1(B)): prevented reduction in the swimming time | reduction in the swimming time ([1]; 200 mg per kilogram of body weight orally once daily during two days of water immersion, FIG. 1(C)): prevented reduction in the swimming time | toxicity to the mice ([1]; 200 mg per kilogram of body weight orally once daily for two days): no toxicity to the mice was observed | reduction in the swimming time ([1]; 0.5, 2, 8 mg per kilogram of body weight orally once daily during two days of water immersion, FIG. 1(A)): prevented in a dose-dependent manner | shortening of the swimming time ([1]; Example 5, FIG. 5, andrographolide 0.25 mg/kg (5a), alpha-lipoic acid 50 mg/kg (5b) or both (5c), orally once daily during two days of water immersion): prevented from shortening | increase rate of the swimming time ([1]; Example 5, swimming time of normally-reared group minus water-immersed control group = 100%, andrographolide 0.25 mg/kg, alpha-lipoic acid 50 mg/kg, alone or combined): 5% | amount of spontaneous exercise [2]: increase in the amount of spontaneous exercise was observed | stability to pH, moisture, oxidation, light, heat [3]: high stability

— patent US8507547B2, “Anti-fatigue agents and oral compositions containing andrographolide as active ingredient” (Suntory Holdings Limited, priority 2007, dated 2013)
